Non-standard residues stand in square brackets, D forms with d. No end group written: not given here. d = 2'-deoxy (DNA); r = 2'-OH (RNA)
Assays:
[1] = tested on: xenografts of human malignant ascites (ovarian carcinoma); assay: In vivo antitumor activity in mice bearing xenografts of human malignant ascites; conditions: intraperitoneal treatment max 8 times within 30 days; DOX 2.5 mg/kg, CIS 2.5 mg/kg
Protocol: All mice received cancer cells from the same patient. When the tumors reached a size of about 0.3 cm^3 (15-20 days after transplantation), mice were treated intraperitoneally with the following formulations: (1) Saline (untreated control); (2) Liposomes (Lip); (3) LHRH; (4) DOX; (5) Lip-DOX; (6) Lip-DOX-BCL2 ASO; (7) Lip-DOX-MDR1 ASO; (8) Lip-DOX-BCL2-MDR1 ASO; (9) LHRH-Lip-DOX-BCL2-MDR1 ASO; (10) CIS; (11) Lip-CIS; (12) Lip-CIS-BCL2 ASO; (13) Lip-CIS-MDR1 ASO; (14) Lip-CIS-BCL2-MDR1 ASO; (15) LHRH-Lip-CIS-BCL2-MDR1 ASO; (16) DOX+CIS; (17) Lip-DOX+Lip-CIS; (18) Lip-DOX-BCL2 ASO+Lip-CIS-BCL2 ASO; (19) Lip-DOX-MDR1 ASO+Lip-CIS-MDR1 ASO; (20) Lip-DOX-BCL2-MDR1 ASO+Lip-CIS-BCL2-MDR1 ASO; (21) LHRH-Lip-DOX-BCL2-MDR1 ASO+LHRH-Lip-CIS-BCL2-MDR1 ASO. […] The animals were treated maximum 8 times over four weeks and the development of primary tumor and intraperitoneal metastases was monitored by fluorescent IVIS (Xenogen, Alameda, Calif.) and ultrasound Vevo 2100 (VisualSonics, Toronto, Canada) imaging systems. To initiate bioluminescence of cancer cells, 1× substrate/reaction buffer (Clontech, Mountain View, Calif.) was diluted 1:20 with DPBS and 100 μl of the solution was injected into each mouse. The bioluminescent images were taken 10 minutes after the injection of the substrate. The size of primary tumor was measured by a caliper. At the end of the experiments, tumors and ascites were excised and their mass was measured. Animal weight was evaluated every day during the treatment period. Changes in tumor size were used as an overall marker for antitumor activity.

MDR1 mRNA = assay: MDR1 gene expression in subcutaneous tumors, quantitative RT-PCR; format: in vivo, human; conditions: treated 8 times within 30 days, vs untreated control
Protocol: (§1) The expression of MDR1 and BCL2 genes was measured using a quantitative RT-PCR as previously described (Pakunlu et al. (2006) J. Control. Rel., 114:153-162). Gene expression was calculated as a percent of internal standard (β2-microglobulin). To identify the presence of BCL2, P-glycoprotein and Caspase 3 (CASP3) proteins, the immunohistochemical staining of paraffin-embedded tumor tissue slides was carried out. For BCL2 and CASP3, slides were deparaffinized in xylene for 5 min followed by progressive rehydration in 100%, 95%, 70% and 50% ethanol for 3 minutes during each step. Endogenous peroxidase activity was blocked by incubating slides in 3% H2O2 solution in methanol at room temperature for 10 minutes and washing in 300 ml PBS two times for 5 minutes. Slides then were stained with anti-mouse monoclonal antibodies for BCL2 conjugated with FITC (1:200 dilution; BioLegend, catalog number 633502, San Diego, Calif.) and for CASP3 conjugated with Alexa Flour 647 (1:200 dilution; BioLegend, catalog number 622702, San Diego, Calif.) by incubating for an hour, washed in 300 ml PBS two times for 5 minutes and analyzed by fluorescence microscopy. To identify the expression of P-glycoprotein, after deparaffinization and rehydration, the slides were stained using Vector® M.O.M. Immunodetection Kit (Vector Laboratories, Inc., Burlingame, Calif.). Mouse monoclonal antibody to P-glycoprotein (ab3366, 1:40 dilution) obtained from Abcam (Cambridge, Mass.) was used as primary antibody for the detection of P-glycoprotein. Biotinylated anti-mouse IgG Reagent (1:250 dilution, Vector Laboratories, Inc., Burlingame, Calif.) and HSP-Streptavidine Detection System (1:500 dilution, Vector Laboratories, Inc., Burlingame, Calif.) in combination with DAB substrate kit (Vector Laboratories, Inc., Burlingame, Calif.) for peroxidase were used for visualization. After staining, the slides were examined by light microscopy and photographed.

BCL2 mRNA = assay: BCL2 gene expression in subcutaneous tumors, quantitative RT-PCR; format: in vivo, human; conditions: treated 8 times within 30 days, vs untreated control
Protocol: as §1

Caspase 3 = assay: Immunohistochemical staining of tumor tissue for Caspase 3; format: in vivo, human; conditions: tumor tissue sections
Protocol: as §1, with “Mouse monoclonal antibody to P-glycoprotein (ab3366, 1:40 dilution) obtained from Abcam (Cambridge, Mass.) was used as primary antibody for the detection of P-glycoprotein. Biotinylated anti-mouse IgG Reagent (1:250 dilution, Vector Laboratories, Inc., Burlingame, Calif.) and HSP-Streptavidine Detection System (1:500 dilution, Vector Laboratories, Inc., Burlingame, Calif.) in combination with DAB substrate kit (Vector Laboratories, Inc., Burlingame, Calif.) for peroxidase were used for visualization. After staining, the slides were examined by light microscopy and photographed.” left out

[2] = tested on: tumor and malignant ascites; assay: Apoptosis induction in tumor and malignant ascites (cell death detection ELISA); format: in vivo, mice; conditions: histone-complexed DNA fragments
Protocol: (§2) Induction of apoptosis was analyzed by the measurement of the enrichment of histone-associated DNA fragments (mono- and oligo-nucleosomes) in homogenates of the tumor, malignant ascites and other organs (liver, kidney, lung, heart and brain) using anti-histone and anti-DNA antibodies by a cell death detection ELISA Plus kit (Roche, Nutley, N.J.) as previously described (Pakunlu et al. (2004) Cancer Res., 64:6214-6224; Dharap et al. (2005) Proc. Natl. Acad. Sci., 102:12962-12967; Dharap et al. (2003) Pharm. Res., 20:889-896).

[3] = Maximum tolerated dose from animal weight change; format: in vivo; conditions: mice; estimated from animal weight change after injection of increasing doses
[4] = tested on: subcutaneous tumor xenografts of human A549 cancer cells; assay: Antitumor activity in subcutaneous A549 xenografts; conditions: intratumoral 3 times within 10 days
Protocol: NCR nude mice (female, 6 weeks, 20 g) were purchased from Taconic Farms, Inc. (Germantown, N.Y.). […] Briefly, A549 human cancer cells transfected with luciferase (5×10^6) were subcutaneously transplanted into the flanks of female athymic nu/nu mice. According to the approved institutional animal use protocol, the tumors were measured by a caliper every other day and their volumes were calculated as d^2×D/2 where d and D are the shortest and longest diameter of the tumor in mm, respectively. When the tumor reached a mean size of 50 mm^3, mice were divided into seven groups and injected intratumorally 3 times within 10 days with 150 μL of the following formulations: (1) saline (control); (2) free non-bound LHRH; (3) free non-bound siRNA; (4) free non-bound CIS; (5) Mixture of CIS and SPIO-PPI G5; (6) Mixture of CIS and SPIO-PPI G5-siRNA; and (7) Mixture of CIS and SPIO-PPI G5-siRNA-PEG-LHRH complexes. The concentrations of CIS and siRNA in the formulations were 2.5 mg/kg and 30 μM, respectively. Changes in tumor size were monitored by real-time bioluminescence in anesthetized animals by IVIS imaging system (Xenogen Bioscience, Cranbury, N.J.).

[5] = tested on: healthy organs (liver, kidney, spleen, heart, lung and brain); assay: Apoptosis induction in healthy organs (cell death detection ELISA); format: in vivo, mice
Protocol: as §2

BCL2 gene = BCL2 gene expression, RT-PCR; format: cell-based, human; conditions: A2780 cells, BCL2 siRNA 1 μM delivered by the named carrier, 24 hours
Protocol: Reverse transcription-polymerase chain reaction (RT-PCR) was used for the analysis of gene expression (Pakunlu et al. (2004) Cancer Res., 64:6214-6224). […] After 24 hours, total cellular RNA was isolated using an RNeasy kit (Qiagen, Valencia, Calif.). […] After synthesis, the reaction mixture was immediately subjected to polymerase chain reaction (PCR), which was carried out using […] System 2400 (Perkin-Elmer, Shelton, Conn.). β2-microglobulin (β2-m) was used as an internal standard. The following pairs of primers were used: BCL2: [NT] (sense; SEQ ID NO: 6), [NT] (antisense; SEQ ID NO: 7); β2-m (internal […] (sense; SEQ ID NO: 8), [NT] (antisense; SEQ ID NO: 9). PCR regimen was as follows: 94° C. for 5 minutes; 94° C. for 1 minute, 55° C. for 1 minute, and 72° C. for 1 minute for 41 cycles; and 60° C. for 10 minutes. PCR products were separated in 4% NuSieve 3:1 Reliant-agarose gels (Lonza, Basel, Switzerland) in 1× Tris-borate EDTA buffer [0.089 mol/L Tris-borate, 0.002 mol/L EDTA (pH 8.3); Research Organics Inc., Cleveland, Ohio] by submarine electrophoresis. The gels were stained with EtBr and digitally photographed.

Row | Molecule | development and mass of intraperitoneal metastases and malignant ascites [1] | growth of primary subcutaneous tumor (volume) [1] | expression of MDR1 gene (MDR1 mRNA) | expression of BCL2 gene (BCL2 mRNA) | expression/activation of caspase 3 (Caspase 3) | apoptosis induction in tumor and malignant ascites [2] | maximum tolerated dose [3] [mg/kg] | decrease of tumor volume/growth compared with untreated control ([4]; last day of treatment, CIS 2.5 mg/kg, siRNA 30 μM) [%] | apoptosis induction in healthy organs [5] | tumor growth / antitumor activity [4] | expression of targeted BCL2 gene, from control value (BCL2 gene)
1 | N.N.[Cl][Pt][Cl] [CIS, cisplatin] | more effective in limiting the growth of both primary tumor and malignant ascites when compared to corresponding DOX formulations | more effective in limiting the growth of both primary tumor and malignant ascites when compared to corresponding DOX formulations | statistically significant overexpression | statistically significant overexpression | activated caspase 3 | induced apoptosis | 2.5 | 36.2 | – | – | –
2 | COc1cccc2c1C(=O)c1c(O)c3c(c(O)c1C2=O)C[C@@](O)(C(=O)CO)C[C@@H]3O[C@H]1C[C@H](N)[C@H](O)[C@H](C)O1 [DOX, doxorubicin] | – | slowed down the growth | statistically significant overexpression | statistically significant overexpression | activated caspase 3 | induced apoptosis | 2.5 | – | – | – | –
3 | Lys6-des-Gly10-Pro9-ethylamide (Gln-His-Trp-Ser-Tyr-DLys-Leu-Arg-Pro-NH-Et; SEQ ID NO: 3) (QHWSY[dK]LRP-NHEt) [LHRH] | did not influence | did not influence | did not change significantly | did not change significantly | – | did not induce detectable levels of apoptosis | – | – | did not induce detectable levels of apoptosis | did not significantly influence the growth of the tumor | –
4 | sense strand, 5′-CCU CGG GCU GUG CUC UUU U-dTdT-3′, SEQ ID NO: 10; antisense strand, 5′-AAA AGA GCA CAG CCC GAG G-dTdT-3′, SEQ ID NO: 11 (sense CCUCGGGCUGUGCUCUUUUTT; antisense AAAAGAGCACAGCCCGAGGTT; sugars from the 5' end r19 d2, backbone not given here) [naked non-specific siRNA, non-specific siRNA used as a negative control] | – | – | – | – | – | – | – | – | – | – | did not influenced
